This is an account of results in ChEMBL document CHEMBL3137667, “[Drug-induced liver injury; fourteenth updated edition of the bibliographic database of liver injuries and related drugs]” (Gastroenterol Clin Biol, 2004).

For data set [1] the following is noted: human, serum.
The conditions of data set [2]: human.
For data set [3] the following is noted: human. This is another data set of the same source.
A short description of data set [4]: Times to onset, minimal and maximal, observed in the indexed observations. [column 'DELAI' in source]. The conditions noted are these: human.
The nature of data set [5]: Presence of at least one case with successful reintroduction. [column 'REINT' in source]. Particulars: human.
Data set [6] can be described thus: Comments (NB not yet translated). [column 'COMMENTAIRES' in source]. Particulars: human.
The nature of data set [7]: Proposed mechanism(s) of liver damage. [column 'MEC' in source]. Particulars: human.
For data set [8] the following is noted: human. This is another data set of the same source.
The conditions of data set [9]: human. The source holds these as a separate data set.
The nature of data set [10]: Highest frequency of moderate liver toxicity observed during clinical trials, expressed as a percentage. [column '% BIOL' in source]. The conditions noted are these: human.
The conditions of data set [11]: human. This is another data set of the same source.
The conditions of data set [12]: human. The source holds these as a separate data set.
For data set [13] the following is noted: human. This is another data set of the same source.
For data set [14] the following is noted: human. This is another data set of the same source.
A short description of data set [15]: Highest frequency of acute liver toxicity observed during clinical trials, expressed as a percentage. [column '% AIGUE' in source]. The conditions noted are these: human.
For data set [16] the following is noted: human, serum. The source holds these as a separate data set.
For data set [17] the following is noted: human. This is another data set of the same source.
For data set [18] the following is noted: human, serum, 4383 h.
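For Hepatotoxicity (association with vascular disease) in this document: count of indexed literature references reporting vascular liver injury in humans, e.g. peliosis hepatitis, hepatic veno-occlusive disease or Budd-Chiari syndrome.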
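For Hepatotoxicity (benign tumour) in this document: value is a count of indexed literature references citing a benign tumour confirmed by histopathology.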
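For Hepatotoxicity (choleostasis) in this document: human cholestatic liver injury, shown by histopathology or by peak ALT or AST elevation over alkaline phosphatase ratio below 2, value counts indexed literature reports.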
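For Hepatotoxicity (chronic liver disease) in this document: chronic liver injury confirmed by histopathology or persistently raised serum aminotransferase activity beyond 6 months, value given as the count of indexed literature references.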
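For Hepatotoxicity (cirrhosis) in this document: value is a count of indexed literature references reporting cirrhosis confirmed by histopathology.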
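For Hepatotoxicity (cytolytic) in this document: human cytolytic liver injury, shown by histopathology or by a ratio above 5 of peak ALT or AST elevation to alkaline phosphatase elevation, value counts indexed references.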
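For Hepatotoxicity (granulomatous hepatitis) in this document: value is a count of indexed literature references reporting granulomatous liver disease confirmed by histopathology.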
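For Hepatotoxicity (malignant tumour) in this document: malignant tumour confirmed by histopathology, value gives the count of indexed literature references reporting it.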
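For Hepatotoxicity (severe hepatitis) in this document: human clinical data: severe hepatitis, meaning potentially life-threatening liver failure or clinically observed cases, the value counts how many indexed literature references report it.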
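For Hepatotoxicity (steatosis) in this document: steatosis confirmed by histopathology, value is the count of indexed references.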

With `CC[C@H]1OC(=O)[C@H](C)[C@@H](O[C@H]2C[C@@](C)(OC)[C@@H](O)[C@H](C)O2)[C@H](C)[C@@H](O[C@@H]2O[C@H](C)C[C@H](N(C)C)[C@H]2O)[C@](C)(O)C[C@@H](C)C(=O)[C@H](C)[C@@H](O)[C@]1(C)O` [ERYTHROMYCIN], the “Hepatotoxicity (acute)” value in data set [1] was 72; in data set [15], 3%. Besides, the “Hepatotoxicity (benign tumour)” value in [2] amounted to 0. The “Hepatotoxicity (severe hepatitis)” value in [3] was determined as 1. For the same molecule, the “Hepatotoxicity (time to onset)” value in data set [4] was 12 hours - 5 weeks. The “Hepatotoxicity (successful reintroduction)” value in data set [5] is “yes”. The “Hepatotoxicity (comment)” value in data set [6] is “CHOLANGITE #CBP RC/AMOXICILLINE/TROLEANDOMYCINE”. In addition, the “Hepatotoxicity (mechanism)” value in data set [7] is “Allergic, Toxic”. The “Hepatotoxicity (malignant tumour)” value in [8] is listed as 0. The “Hepatotoxicity (cirrhosis)” value in data set [9] was 0. The results for the “Hepatotoxicity (moderate)” value in data set [10] and in data set [16] were 38% and 19, respectively. Also, the “Hepatotoxicity (association with vascular disease)” value in data set [11] amounted to 0. Also, the “Hepatotoxicity (cytolytic)” value in data set [12] came to 20. In addition, in data set [13], the “Hepatotoxicity (granulomatous hepatitis)” value is reported as 0. Moreover, the “Hepatotoxicity (choleostasis)” value in data set [14] amounted to 55. Besides, the “Hepatotoxicity (steatosis)” value in [17] stood at 0. Besides, the “Hepatotoxicity (chronic liver disease)” value in data set [18] was determined as 0.
Take `C#C[C@]1(O)CC[C@H]2[C@@H]3CCC4=Cc5oncc5C[C@]4(C)[C@H]3CC[C@@]21C` [DANAZOL]: the entries for the “Hepatotoxicity (acute)” value in data set [1] and in data set [15] were 13 and 9.4%, respectively. Moreover, the “Hepatotoxicity (benign tumour)” value in [2] was 12. For the same molecule, in [3], the “Hepatotoxicity (severe hepatitis)” value came out at 2. Also, in [4], the “Hepatotoxicity (time to onset)” value is 3 days - 20 years. The “Hepatotoxicity (successful reintroduction)” value in data set [5] is given as “yes”. Besides, the “Hepatotoxicity (comment)” value in data set [6] is reported as “HNF”. The “Hepatotoxicity (mechanism)” value in data set [7] is given as “Dose-dependant”. Moreover, the “Hepatotoxicity (malignant tumour)” value in data set [8] stood at 5. In data set [9], the “Hepatotoxicity (cirrhosis)” value worked out at 0. Moreover, the entries for the “Hepatotoxicity (moderate)” value in data set [10] and in [16] were 42.1% and 32, respectively. For the same molecule, the “Hepatotoxicity (association with vascular disease)” value in data set [11] is listed as 2. Moreover, in [12], the “Hepatotoxicity (cytolytic)” value is listed as 6. Besides, the “Hepatotoxicity (granulomatous hepatitis)” value in data set [13] worked out at 0. In addition, the “Hepatotoxicity (choleostasis)” value in data set [14] came out at 8. Besides, in data set [17], the “Hepatotoxicity (steatosis)” value is reported as 0. The “Hepatotoxicity (chronic liver disease)” value in data set [18] was found to be 0.
As to `CCCNCC(O)COc1ccccc1C(=O)CCc1ccccc1` (configuration not stated) [PROPAFENONE], the figures for the “Hepatotoxicity (acute)” value in data set [1] and in data set [15] were 9 and 7.7%, respectively. Also, the “Hepatotoxicity (benign tumour)” value in data set [2] is on record as 0. For the same molecule, in [3], the “Hepatotoxicity (severe hepatitis)” value amounted to 0. Moreover, the “Hepatotoxicity (time to onset)” value in data set [4] was found to be 6 days - 16 months. In addition, the “Hepatotoxicity (successful reintroduction)” value in [5] was “yes”. In addition, in data set [6], the “Hepatotoxicity (comment)” value was “CHOLANGITE PRICHOLANGITE AC_ANTI-N”. In addition, in data set [7], the “Hepatotoxicity (mechanism)” value is “Allergic”. In [8], the “Hepatotoxicity (malignant tumour)” value turned out to be 0. The “Hepatotoxicity (cirrhosis)” value in data set [9] was found to be 0. The “Hepatotoxicity (moderate)” value in data set [10] is listed as 10.6%; in [16] it was 7. Moreover, the “Hepatotoxicity (association with vascular disease)” value in [11] is recorded as 0. In [12], the “Hepatotoxicity (cytolytic)” value was 1. Also, the “Hepatotoxicity (granulomatous hepatitis)” value in [13] was 0. Besides, the “Hepatotoxicity (choleostasis)” value in data set [14] amounted to 6. In data set [17], the “Hepatotoxicity (steatosis)” value is listed as 0. The “Hepatotoxicity (chronic liver disease)” value in [18] worked out at 0.
As to `Cc1onc(-c2ccccc2)c1C(=O)N[C@@H]1C(=O)N2[C@@H]1SC(C)(C)[C@@H]2C(=O)O` [OXACILLIN], the figures for the “Hepatotoxicity (acute)” value in data set [1] and in data set [15] were 17 and 22%, respectively. In addition, the “Hepatotoxicity (benign tumour)” value in data set [2] is listed as 0. In addition, in data set [3], the “Hepatotoxicity (severe hepatitis)” value worked out at 0. In addition, the “Hepatotoxicity (time to onset)” value in [4] is listed as 2 days - 2.5 months. Moreover, in data set [5], the “Hepatotoxicity (successful reintroduction)” value is reported as “yes”. Moreover, the “Hepatotoxicity (comment)” value in data set [6] is given as “RC/CEFALOTINE/NAFCILLINE”. Also, in data set [7], the “Hepatotoxicity (mechanism)” value is listed as “Allergic, Toxic Metabolite”. Also, the “Hepatotoxicity (malignant tumour)” value in [8] is given as 0. Further, the “Hepatotoxicity (cirrhosis)” value in data set [9] was found to be 0. Also, the “Hepatotoxicity (moderate)” value in data set [10] is on record as 81%; in [16], 12. In addition, the “Hepatotoxicity (association with vascular disease)” value in data set [11] is 0. The “Hepatotoxicity (cytolytic)” value in data set [12] came out at 14. Further, the “Hepatotoxicity (granulomatous hepatitis)” value in data set [13] is on record as 1. Moreover, the “Hepatotoxicity (choleostasis)” value in data set [14] is reported as 4. In addition, the “Hepatotoxicity (steatosis)” value in data set [17] was 1. Moreover, in data set [18], the “Hepatotoxicity (chronic liver disease)” value was 0.
